Columns and labels:
yeast [1] = test: One-step fermentation of ground corn slurry with T. cingulata GA + R. pusillus AA blend, ethanol by HPLC; assay type: cell-based; conditions: for Ethanol yield: one-step fermentation
Protocol: All treatments were evaluated via mini-scale fermentations. 410 g of ground yellow dent corn (with an average particle size around 0.5 mm) was added to 590 g tap water. This mixture was supplemented with 3.0 mL 1 g/L penicillin and 1 g of urea. The pH of this slurry was adjusted to 4.5 with 40% H2SO4. Dry solid (DS) level was determined to be 35 wt. %. Approximately 5 g of this slurry was added to 20 mL vials. Each vial was dosed with the appropriate amount of enzyme dosage shown in Table 2 below followed by addition of 200 microL yeast propagate/5 g slurry. Actual enzyme dosages were based on the exact weight of corn slurry in each vial. Vials were incubated at 32° C. Nine replicate fermentations of each treatment were run. Three replicates were selected for 24 hours, 48 hours and 70 hours time point analysis. Vials were vortexed at 24, 48 and 70 hours and analyzed by HPLC. The HPLC preparation consisted of stopping the reaction by addition of 50 microL of 40% H2SO4, centrifuging, and filtering through a 0.45 micrometer filter. Samples were stored at 4 C until analysis. Agilent™ 1100 HPLC system coupled with RI detector was used to determine ethanol and oligosaccharides concentration. The separation column was aminex HPX-87H ion exclusion column (300 mm×7.8 mm) from BioRad™).
The experiment was carried out as described in Example 2, except that salicylic acid (SA) was replaced with acetyl salicylic acid (ASA). The treatment and enzyme dosing was described in table below.

[2] = tested on: Pichia stipitis (CBS6054); conditions: salicylic acid 5 mM, 30° C., pH 6, FIG. 9
RED STAR yeast [3] = test: Conventional simultaneous saccharification fermentation (SSF) of liquefied corn mash, ethanol yield by weight loss and HPLC; assay type: cell-based; conditions: weight loss method, all the enzymes tested, FIGS. 1, 2 and 3
Protocol: Liquefied corn mash was used to evaluate the effect of adding salicylic acid (SA) to a known enzyme dosage of
The performance of these enzymes was compared to controls without salicylic acid addition. The experimental set-up used is described in table below.
5.5 g of RED STAR™ yeast was rehydrated in 100 mL distilled water and incubated at 32° C. for 30 minutes prior to the beginning of fermentation. Approximately 50 million cells/g DS of yeast were added to each of the fermentations.
The corn mash was thawed to room temperature. Urea and Penicillin were added to a final concentration of […] and 3 mg/L respectively. Small-scale (˜4 g) fermentations were carried out in 15 mL polypropylene tubes with five replicates for each experimental condition. The tubes were prepared by drilling a 1/32 inch (1.5 mm) hole and the empty tubes were then weighed before liquefied corn mash was added. The tubes were weighed again after mash was added to determine the exact weight of mash in each tube. This weight was used to calculate the enzyme dosage necessary as follows:
Enzyme was added according to dosage described in table above and 100 μl of rehydrated yeast were added to each tube to begin fermentation. Fermentation progress was followed by weighing the tubes over time for approximately 70 hours. Tubes were vortexed briefly before each weighing. […]

yeast [4] = test: Yield boosting effect of salicylic acid on ethanol production from starch-containing material (conventional SSF), summary findings; assay type: cell-based
From the text: Further, the effect on yeast growth is 2-fold.

RED STAR yeast [5] = test: Dose/response study of salicylic acid in conventional SSF; assay type: cell-based
Protocol: The experiment was carried out as described in Example 1, except that the following enzyme blends was used for all treatments: • 0.3 AGU Talaromyces emersonii glucoamylase/g DS; • 0.0025 mg Rhizomucor pusillus alpha-amylase/g DS; and • 0.0125 mg Trametes cingulata glucoamylase/g DS. All treatments and controls included 8 replicates. [table]

CC(=O)Oc1ccccc1C(=O)O [ASA, acetyl salicylic acid, reference compound]
Ethanol yield (yeast [1]; ASA 1 mM (mM/g DS), 24 hours): 108.19 | Ethanol yield (yeast [1]; ASA 1 mM (mM/g DS), 48 hours): 153.37 | Ethanol yield (yeast [1]; ASA 1 mM (mM/g DS), 70 hours): 160.39 | Fermentation kinetic and final ethanol yield (yeast [1]; ASA 1.0 mM/g DS, FIG. 5): gave an increase in fermentation kinetic and also final ethanol yield

O=C(O)c1ccccc1O [SA, salicylic acid]
Ability of P. stipitis to tolerate the inhibitors in the unwashed biomass hydrolyzate [2]: improves the ability of P. stipitis to tolerate the inhibitors | Fermentation kinetic and final ethanol yield (RED STAR yeast [3]): increases the fermentation kinetic and also final ethanol yield | Residual glucose (yeast [4]; at high salicylic acid concentrations): increased | Effect on yeast growth (yeast [4]; at higher concentrations): reduce yeast growth | Effect on cell growth (yeast [4]; at lower concentration): positive effect on cell growth | Effective concentration range (yeast [4]; by HPLC): 1.25 to 2.5 mM | Maximum ethanol increase (yeast [4]; by HPLC): 1.3% | Effective concentration range (yeast [4]; by weight loss determination): 0.63 to 2.5 mM | Maximum ethanol increase (yeast [4]; by weight loss determination): 3.5% | Glycerol production (yeast [4]; with increasing salicylic acid concentration): decreased dramatically | Ethanol yield (yeast [1]; SA 1 mM (mM/g DS), 24 hours): 107.77 | Ethanol yield (yeast [1]; SA 1 mM (mM/g DS), 48 hours): 144.61 | Ethanol yield (yeast [1]; SA 1 mM (mM/g DS), 70 hours): 151.80 | Ethanol yield (yeast [1]; SA 2.5 mM (mM/g DS), 24 hours): 107.53 | Ethanol yield (yeast [1]; SA 2.5 mM (mM/g DS), 48 hours): 143.11 | Ethanol yield (yeast [1]; SA 2.5 mM (mM/g DS), 70 hours): 150.80 | Ethanol yield (yeast [1]; SA 5 mM (mM/g DS), 24 hours): 104.46 | Ethanol yield (yeast [1]; SA 5 mM (mM/g DS), 48 hours): 137.21 | Ethanol yield (yeast [1]; SA 5 mM (mM/g DS), 70 hours): 146.07 | Ethanol yield (yeast [1]; SA 15 mM (mM/g DS), 24 hours): 75.03 | Ethanol yield (yeast [1]; SA 15 mM (mM/g DS), 48 hours): 117.40 | Ethanol yield (yeast [1]; SA 15 mM (mM/g DS), 70 hours): 126.40 | Fermentation speed and final ethanol yield (yeast [1]; Trametes cingulata GA and Rhizomucor pusillus AA blend, FIG. 4): increases the fermentation speed and final ethanol yield | Glycerol after 70 hours of fermentation (RED STAR yeast [5]; HPLC, as a function of SA dose, FIG. 8): consistently reduced the amount of the by-product glycerol | Fermentation kinetics and final ethanol yield (RED STAR yeast [5]; weight loss data, FIG. 6): increased the fermentation kinetics and final ethanol yield

— patent US20080145903A1, “PROCESSES OF PRODUCING FERMENTATION PRODUCTS” (priority 2006, published 2008)
